In US20110269812A1, “NOVEL BENZYLIDENE-INDOLINONE AND THEIR MEDICAL AND DIAGNOSTIC USES” (Agency for Science, Technology and Research, priority 2008, published 2011):

What was measured:
[1] = system: CYP1A1; assay: 7-ethoxyresorufin O-deethylase (EROD) assay, CYP1A1 induction in Hepa1c1c7 cells; type: cell-based, murine; conditions: 48 h
Procedure: Hepa1c1c7 cells were plated at a density of 10000 cells per well in a 96-well plate and cultured for 24 h. A stock solution of test compound was prepared in DMSO and serially diluted with medium to give the desired concentration in the well. The final concentration of DMSO was 0.5% v/v. The cells were incubated with test compound for 48 h, after which the medium was removed, the well washed with 200 μl of 1×phosphate-buffered saline solution (PBS) and then incubated with 5 μM 7-ethoxyresorufin and 2 mM salicylamide in 200 μl of medium at 37° C., 40 min. Readings were taken at λexcitation of 530 nm and λemission of 590 nm on a fluorometer. Fluorescence (if any) of the test compound was determined at the same wavelengths to take into account its contribution to the observed readings. Readings of empty wells (no cells, “blank”) and wells with Hepa1c1c7 cells in medium containing 0.5% DMSO but without test compound (“control”) were also determined. TCDD, a strong inducer of CYP1A1 activity, as well as BNF and sulforaphane were used as controls.
CYP1A1 induction activity was given by the expression:
Degree of induction=FCells+test compound−FBlank/FControl−FBlank
The EROD assay was used for this purpose (Burke, M. D.; Mayer, R. T., Drug Metab Dispos 1974, 2, 583). EROD activity describes the rate at which CYP1A1 caused the O-deethylation of 7-ethoxyresorufin to resorufm. […] This ratio was determined for compounds at concentrations that were approximately 4 times their CD values. A fixed concentration was not used here because it would be difficult to select this concentration in view of the large variation in NQO1 induction activities. The quotient of NQO1 and CYP1A1 induction ratios (ratio determined at the same concentration) was also obtained for each compound. Values >1 would imply greater induction of NQO1 relative to CYP1A1.

[2] = system: HCT116 cells; assay: Cell cycle of synchronized HCT116 cells by flow cytometry (FACS); type: cell-based, human; conditions: for Proportion of cells in G1 / Proportion of cells in G2/M / Proportion of cells in S / Proportion of cells in Sub-G1: 24 h; for type of cell cycle arrest caused: HCT116 cells, ≈1.5 × IC50, 24 h
Procedure: HCT116 cells were grown to confluence and maintained in this state for at least 5 days without change of media. The serum starved cells were then trypsinized and subcultured at densities of 5×10^5 cells/well in six-well plates. Growth media contained 10% fetal calf serum. The test compound was added either immediately to cells synchronized at G1 phase, or 24 h later when cells were synchronized at G2 phase. The cells were incubated with test compound for 24 h from the time of addition. After this time, the cells were harvested, trypsinized and fixed in 70% ice-cold ethanol for a minimum of 24 h. After centrifugation, the supernatant was discarded and the pellet was treated with RNase A (200 μg/ml) for 30 min at room temperature, followed by cell staining using propidium iodide at a final concentration of 20 μg/ml. The stained cells were then analyzed for cell cycle distribution in the sub-G1, G1, S and G2/M phases on a Dako Cytomation Cyan LX (Dako Colorado, Fort Collins, Colo., USA) equipped with an argon solid state laser (488 nm) using the Summit (version 4.3) software. Compounds were tested at a concentration of ≈1.5×IC50, with IC50 determined by the MTT assay on HCT116 cells.
To have a better understanding of the mechanisms underlying the antiproliferative activities of the compounds listed in Table 5, their effects on the cell cycle was investigated by fluorescence-activated cell sorter (FACS) analysis using flow cytometry. The experiments were designed to examine the effects of the test compounds on synchronized cell populations at the GI or G2/M phase. G1 synchronized cells were obtained by growing cells to confluence for up to 5 days and then stimulating their re-entry into the cell cycle by sub-culturing at lower densities. After 24 hours of growth, these cells would be aligned at the G2/M phase.
Cells aligned at the G2/M phase were similarly treated.

[3] = system: HepG2; assay: cells; type: cell-based, human; conditions: for IC50 / viability at 10 µM: Homo sapiens; for IC50: HepG2, 72 h, read-out: IC50 HepG2; for viability at 10 µM: HepG2, 72 h, vs vehicle-treated controls, read-out: Percentage viability HepG2; for SR(HepG2/THLE2) safety ratio: percentage viability at 10 μM normalized with THLE2
Procedure: (§1) Cells were plated at 5000-7000 cells/per well and incubated for 24 h before treatment. […] Cell Titer-Glo (Promega, Madison, Wis.) assay was performed according to manufacturer's instruction with luminescence detected on SpectraMax M5 (Molecular Devices, Sunnyvale, Calif.). Data was expressed as percentage of viability vs. vehicle-treated controls.
(§2) The anti-cancer potential of these compounds against HCC were tested using a phenotypic assay where compounds were screened over 100-fold concentration range (0.1 to 10 μM) using two representative liver cancer cell lines, HepG2 and HuH7. Additionally, THLE2 was employed as normal hepatocyte cell line to differentiate anti-cancer potential from non-specific cytotoxicities.
(§3) Cell viability assay shown in FIG. 2 was analyzed by Prism5 for the determination of respective IC50 values.
(§4) Cell viability was determined as described previous in Table 7. Percentage viability at 10 μM treatments was determined and safety ratios were calculated by normalizing survival in HCC cell lines to THLE2.

[4] = system: HuH7; assay: cells; type: cell-based, human; conditions: for IC50 / viability at 10 µM: Homo sapiens; for IC50: Huh-7, 72 h, read-out: IC50 HuH7; for viability at 10 µM: Huh-7, 72 h, vs vehicle-treated controls, read-out: Percentage viability HuH7; for SR(HuH7/THLE2) safety ratio: percentage viability at 10 μM normalized with THLE2
Procedure: as §1, §2, §3, §4

[5] = system: THLE2; assay: Cell viability assay (Cell Titer-Glo), THLE2 normal hepatocyte cell line; type: cell-based; conditions: Homo sapiens, THLE-2, 72 h, read-out: IC50 THLE2
Procedure: as §1, §2, §3

[6] = HCT 116 cells released from G2 Block, 2.5 μM
[7] = HCT 116 cells released from G1 Block, 15 μM
[8] = HCT 116 cells released from G2 Block, 15 μM
[9] = HCT 116 cells released from G1 Block, 5 μM
[10] = HCT 116 cells released from G2 Block, 5 μM

| Structure (SMILES) | CYP1A1 induction ratio ([1]; 0.5 μM) | type of cell cycle arrest caused [2] | IC50 [3] | viability at 10 µM [3] | SR(HepG2/THLE2) safety ratio [3] | IC50 [4] | viability at 10 µM [4] | SR(HuH7/THLE2) safety ratio [4] | IC50 [5] | Proportion of cells in G1 [2, 7] | Proportion of cells in G2/M [2, 7] | Proportion of cells in S [2, 7] | Proportion of cells in Sub-G1 [2, 7] | Proportion of cells in G1 [2, 8] | Proportion of cells in G2/M [2, 8] | Proportion of cells in S [2, 8] | Proportion of cells in Sub-G1 [2, 8] | further results |
| --- | --- | --- | --- | --- | --- | --- | --- | --- | --- | --- | --- | --- | --- | --- | --- | --- | --- | --- |
| COc1cccc(/C=C2/C(=O)Nc3cc(OC)ccc32)c1 [Compound 42, (E)-6-Methoxy-3-(3-methoxybenzylidene)indolin-2-one] | 1.13 ± 0.01 | G2 arrest | 2200 nM | 20.7 ± 2% | 1.89 | 4000 nM | 49.2 ± 4% | 0.79 | 1200 nM |  |  |  |  |  |  |  |  | Proportion of cells in G1 [2, 6]: 26.01%; Proportion of cells in G2/M [2, 6]: 43.57%; Proportion of cells in S [2, 6]: 15.36%; Proportion of cells in Sub-G1 [2, 6]: 30.54% |
| COc1ccc2c(c1)NC(=O)/C2=C/c1ccc(OC)c(O)c1 [Compound 45, (E)-3-(3-Hydroxy-4-methoxybenzylidene)-6-methoxyindolin-2-one] |  | G2 arrest | 1400 nM | 19.9 ± 1.4% | 3.61 | 8000 nM | 46.6 ± 1.8% | 1.54 | > 10000 nM | 17.49% | 56.49% | 21.13% | 5.26% | 26.01% | 43.57% | 15.36% | 15.54% | CYP1A1 induction ratio ([1]; 1 μM): 1.05 ± 0.01 |
| O=C1Nc2cc(F)ccc2/C1=C\c1cccc(C(F)(F)F)c1 [Compound 46, (E)-6-Fluoro-3-(3-(trifluoromethyl)benzylidene)indolin-2-one] |  | G1 arrest | 400 nM | 4.2 ± 0.3% | 17.19 | 1100 nM | 11.3 ± 1% | 6.39 | > 10000 nM | 64.93% | 14.58% | 8.04% | 12.68% | 64.15% | 25.00% | 8.82% | 2.49% | CYP1A1 induction ratio ([1]; 0.05 μM): 1.23 ± 0.08 |
| O=C1Nc2cc(Cl)ccc2/C1=C\c1cccc(C(F)(F)F)c1 [Compound 47, (E)-6-Chloro-3-(3-(trifluoromethyl)benzylidene)indolin-2-one] |  | G1 arrest | 600 nM | 1.1 ± 0.09% | 65.27 | 500 nM | 3.3 ± 0.2% | 21.76 | > 10000 nM | 65.55% | 15.13% | 7.10% | 12.39% | 53.47% | 28.39% | 8.05% | 10.62% |  |
| COc1ccc2c(c1)NC(=O)/C2=C/c1cccc(C(F)(F)F)c1 [Compound 48, (E)-6-Methoxy-3-(3-(trifluoromethyl)benzylidene)indolin-2-one] | 1.36 ± 0.07 | G2 arrest | 400 nM | 14.5 ± 1.3% | 2.40 | 2300 nM | 27.3 ± 0.5% | 1.27 | 3600 nM |  |  |  |  |  |  |  |  | Proportion of cells in G1 [2, 9]: 17.50%; Proportion of cells in G2/M [2, 9]: 59.16%; Proportion of cells in S [2, 9]: 19.12%; Proportion of cells in Sub-G1 [2, 9]: 4.39%; Proportion of cells in G1 [2, 10]: 30.55%; Proportion of cells in G2/M [2, 10]: 31.58%; Proportion of cells in S [2, 10]: 17.96%; Proportion of cells in Sub-G1 [2, 10]: 20.69% |
